Data as given in US11079373B2, “Biomarker detection methods and systems and kits for practicing same” (The Board of Trustees of the Leland Stanford Junior …, priority 2015, dated 2021).

Tests used:
Assay type in all cases: cell-based, human
C.T.L. cells = assay: Two-color IFNγ/IL-2 detection by FLOWSPOT; conditions: PHA at various concentrations, 16 h
Description: (§1) One hundred thousand peripheral blood mononuclear cells (0.1×10^6 PBMC) or purified lymphocytes were mixed with 7,000 capture microspheres and distributed into each assay well of a 96-well U bottom plate. The plate was centrifuged at 1,500×g for 5 min and the supernatant was removed. The pellet of cells and capture beads were resuspended in 200 μL culture medium with or without testing reagent(s) or stimulus(i), then the plate was incubated in a humidified 37° C., 5% CO2 incubator for 10 min to 7 days (usually 2 to 16 h). After incubation, the cells were lysed in NP-40 lysis buffer (10 mM Tris-HCl, pH 7.4, 10 mM NaCl, 3 mM MgCl2, 0.5% NP-40). The capture beads were washed twice with 3% HBSA (3% BSA in HBSS) and incubated with 50 μL PE-labeled anti-Bio-marker for 60 min at room temperature. After two washes of 3% HBSA, the beads were acquired and analyzed on a BD FACSCanto II flow cytometer. The number of positive spots was calculated based on the following formulas: Percent positive spots (%)=Number of positive particles acquired/Total number of particles acquired×100 Total number of positive spots=Percent positive spots (%)×7,000 (where 7,000=total number of particles/test)
One hundred thousand C.T.L. cells were co-cultured with a mix of IFNγ and IL-2 capture microparticles (7,000 each with different fluorescent ID codes) for 16 h in the presence of PHA at various concentrations.

PBMC cells = assay: Three-color IFNγ/IL-2/GrB detection by […]; conditions: PHA 20 ug/mL, 16 h
[1] = tested on: peripheral blood mononuclear cells (PBMC); assay: Cytometric Bead Array (CBA) IFNγ secretion detection in culture media of PHA-treated PBMC; conditions: 16 h, culture medium
Description: One hundred thousand peripheral blood mononuclear cells (0.1×10^6 PBMC) in 100 μL of 10% FBS RPMI 1640 containing varying concentrations of PHA were seeded in each well in a 96 well plate and incubated in a humidified 37° C., 5% CO2 incubator for 16 h. The plate was centrifuged at 2,500 g for 3 min and 50 μL culture medium of each well was carefully transferred into each corresponding test well in a new 96 well plate. After adding 50 μL INFγ capture beads (BD Biosciences; Cat. 558269) into each well, the plate was incubated at room temperature (RT) for 60 min with constant shaking on a plate shaker. After adding 50 μL INFγ PE-detection reagents (BD Biosciences; Cat. 51-9004031), the plate was continually incubated at RT for additional 2 h. The beads were then washed three times with 200 μL wash buffer (0.05% Tween-20 in PBS) and acquired on a BD FACSCanto II flow cytometer. The concentrations of INFγ in the culture media from each well were extrapolated from the standard curve generated from a series of known INFγ standards in the same batch of CBA assay.

[2] = tested on: peripheral blood mononuclear cells (PBMC); assay: FlowSpot IFNγ secretion in situ detection, PBMC co-cultured with IFNγ capture microparticles in presence of PHA; conditions: 16 h; for FLOWSPOT SPOTS (n) (IFNγ): percent positive × 7,000
Description: as §1
In parallel, 0.1×10^6 PBMC cells from the same donor were co-cultured with 7,000 IFNγ capture microparticles in a humidified 37° C., 5% CO2 incubator for 16 h in the presence of PHA at various concentrations. After incubation, the cells were lysed in NP-40 lysis buffer (10 mM Tris-HCl, pH 7.4, 10 mM NaCl, 3 mM MgCl2, 0.5% NP-40). The capture beads were washed twice with 3% HBSA (3% BSA in HBSS) and incubated with 50 μL PE-labeled anti-IFNγ for 60 min at room temperature. After an additional two washes of 3% HBSA, the beads were acquired and analyzed on a BD FACSCanto II flow cytometer.

Substance: phytohaemagglutinin [PHA]
- IFNγ response to PHA (C.T.L. cells): dose-dependent responses
- IL-2 response to PHA (C.T.L. cells): dose-dependent responses
- median channel value (MCV), intensity of IFNγ secretion (PBMC cells): 653
- median channel value (MCV), intensity of IL-2 secretion (PBMC cells): 407
- number of positive spots for GrB (PBMC cells): 630 spots
- number of positive spots for IFNγ (PBMC cells): 5,320 spots
- number of positive spots for IL-2 (PBMC cells): 4,340 spots
- CBA IFNγ ([1]; PHA 0.5 μg/mL, from standard curve): 17 pg/mL
- CBA IFNγ ([1]; PHA 1 μg/mL): 36 pg/mL
- CBA IFNγ ([1]; PHA 2.5 μg/mL): 76 pg/mL
- CBA IFNγ ([1]; PHA 5 μg/mL): 174 pg/mL
- CBA IFNγ ([1]; PHA 10 μg/mL): 281 pg/mL
- CBA IFNγ ([1]; PHA 15 μg/mL): 344 pg/mL
- CBA IFNγ ([1]; PHA 20 μg/mL): 312 pg/mL
- FLOWSPOT MFI (IFNγ) ([2]; PHA 0.5 μg/mL): 166
- FLOWSPOT % Positive Spot (IFNγ) ([2]; PHA 0.5 μg/mL, 0.1×10^6 PBMC, 7,000 microparticles): 24%
- FLOWSPOT SPOTS (n) (IFNγ) ([2]; PHA 0.5 μg/mL): 1680 n
- FLOWSPOT % Positive Spot (IFNγ) ([2]; PHA 1 μg/mL): 35%
- FLOWSPOT MFI (IFNγ) ([2]; PHA 1 μg/mL): 659
- FLOWSPOT SPOTS (n) (IFNγ) ([2]; PHA 1 μg/mL): 2450 n
- FLOWSPOT % Positive Spot (IFNγ) ([2]; PHA 2.5 μg/mL): 43%
- FLOWSPOT MFI (IFNγ) ([2]; PHA 2.5 μg/mL): 4050
- FLOWSPOT SPOTS (n) (IFNγ) ([2]; PHA 2.5 μg/mL): 3010 n
- FLOWSPOT % Positive Spot (IFNγ) ([2]; PHA 5 μg/mL): 45%
- FLOWSPOT MFI (IFNγ) ([2]; PHA 5 μg/mL): 9541
- FLOWSPOT SPOTS (n) (IFNγ) ([2]; PHA 5 μg/mL): 3150 n
- FLOWSPOT % Positive Spot (IFNγ) ([2]; PHA 10 μg/mL): 56%
- FLOWSPOT MFI (IFNγ) ([2]; PHA 10 μg/mL): 19594
- FLOWSPOT SPOTS (n) (IFNγ) ([2]; PHA 10 μg/mL): 3920 n
- FLOWSPOT % Positive Spot (IFNγ) ([2]; PHA 15 μg/mL): 57%
- FLOWSPOT MFI (IFNγ) ([2]; PHA 15 μg/mL): 21680
- FLOWSPOT SPOTS (n) (IFNγ) ([2]; PHA 15 μg/mL): 3990 n
- FLOWSPOT % Positive Spot (IFNγ) ([2]; PHA 20 μg/mL): 55%
- FLOWSPOT MFI (IFNγ) ([2]; PHA 20 μg/mL): 22241
- FLOWSPOT SPOTS (n) (IFNγ) ([2]; PHA 20 μg/mL): 3850 n
